Test results published in patent publication US9011863B2, “Combinations of kinase inhibitors for the treatment of cancer” (Exelixis, Inc., priority 2010, dated 2015).

Experiments:
[1] = tested on: receptors of tyrosine kinase (RTKs) in BT474 cells; experiment: phospho-RTK arrays and RTK qPCR in BT474 cells; type: cell-based, human
Protocol: FIG. 19B depicts a photomicrograph of BT474 cells were treated with 6 μM compound A over a time course up to 24 hours as indicated. Cell lysates were prepared, and 200 μg of total protein were hybridized to arrays containing probes for 42 different receptors of tyrosine kinase (RTKs).
FIG. 19C depicts a photomicrograph of BT474 cells were treated with 6 μM compound A over a time course up to 24 hours as indicated.
FIG. 19D depicts a bar-graph representing the amount of RTK mRNA as identified using real-time qPCR analysis of the indicated RTKs in RNA collected from BT474 cells treated with either DMSO or 10 μM compound A for 6 hours.
Immunoprecipitation, immunoblotting, and RTK assays were performed according to published methods. Primary antibodies included AKT, pAKT^S473, pAKT^T308, ERK, pERK^T202/Y204, pHER2^Y1248, pHER3^Y1197, pHER3^Y1222, pHER3^Y1289, S6, pS6^S240/244, p27, pRb^S780, FoxO1, FoxO3a, MEK1/2 (Cell Signaling Technology, Danvers, Mass., USA), p85, 4G10 pTyr (Millipore, Billerica, Mass., USA), HER3, CyclinD1, RhoA, HDAC3 (Santa Cruz Biotechnology, Santa Cruz, Calif., USA), PARP (BD Transduction Laboratories), β-actin (Sigma, St. Louis, Mo., USA), and HER2 (Neomarkers, division of Thermo Scientific, Freemenot, Calif., USA). […] Immunoreactive signals were detected by enhanced chemilluminsecence (Pierce, Rockford, Ill., USA). […]

[2] = tested on: pAKT, pS6, HER3, pHER3, HER2 in human breast cancer cell lines; experiment: immunoblotting of PI3K/AKT pathway markers; type: cell-based
Protocol: Immunoprecipitation, immunoblotting, and RTK assays were performed according to published methods. Primary antibodies included AKT, pAKT^S473, pAKT^T308, ERK, pERK^T202/Y204, pHER2^Y1248, pHER3^Y1197, pHER3^Y1222, pHER3^Y1289, S6, pS6^S240/244, p27, pRb^S780, FoxO1, FoxO3a, MEK1/2 (Cell Signaling Technology, Danvers, Mass., USA), p85, 4G10 pTyr (Millipore, Billerica, Mass., USA), HER3, CyclinD1, RhoA, HDAC3 (Santa Cruz Biotechnology, Santa Cruz, Calif., USA), PARP (BD Transduction Laboratories), β-actin (Sigma, St. Louis, Mo., USA), and HER2 (Neomarkers, division of Thermo Scientific, Freemenot, Calif., USA). Species-specific horseradish peroxidase-conjugated secondary antibodies were from Promega (Madison Wis., USA). Immunoreactive signals were detected by enhanced chemilluminsecence (Pierce, Rockford, Ill., USA). Phospho-RTK arrays were from R&D Systems (Minneapolis, Minn., USA) total cell lysates were used to hybridize with the arrays according to the manufacturer's instructions.
A panel of breast cancer cell lines with dysregulated PI3K activity was treated with increasing doses of compound A under two- and three-dimensional (2D and 3D) growth conditions. All experiments were conducted in 2.5% FBS-containing media, unless otherwise stated. […] This was further confirmed by immunoblot analysis of biomarkers of cell death and G1-S cell cycle transition in lysates from cells treated for 24 hours with compound A as shown in FIG. 10B.
Experiments were performed to examine the effect of compound A on a more comprehensive panel of molecules in the PI3K and TOR signaling pathways.
Although pHER3 is known to activate the extracellular signal regulated kinase (ERK/MAPK) via its interaction through the adaptor protein Shc, recovery of pERK upon feedback reactivation of HER3 was not detected consistently as shown in FIG. 13A.

[3] = tested on: HCC1937 human breast cancer cells; experiment: HCC1937 cell viability, alamar blue assay; type: cell-based; conditions: read-out: growth inhibition IC50
Protocol: FIG. 1B. siRNA screen to identify kinases that potentially compensate for PI3K inhibition. HCC1937 cells were seeded in triplicate in a 96-well plate and treated with DMSO or the indicated concentration of compound A for 72 hours. Cell viability was measured by the alamar blue assay.
The purpose of the present study is to identify kinases and kinase-regulated signaling pathways that compensate for PI3K inhibition in human breast cancer cells. To this end, siRNA screen is employed targeting 779 human kinases in order to determine if downregulation of specific kinases increases the sensitivity of HCC1937 human breast cancer cells to the PI3K inhibitor compound A, which a compound of formula I and of Table 1. […] Following reverse transfection with the siRNA library, cells are treated with either DMSO or 10 μM compound A for 72 hours in a medium containing 2.5% fetal bovine serum (FIGS. 1A and 2) and the alamar blue assay is used to measure cell viability FIG. 1B. […] HCC1937 cells were treated with 10 μM compound A in medium containing 2.5% FBS for 0, 2, 8, or 24 hours. RNA was isolated with Trizol and purified using the RNeasy column (Qiagen). Gene expression from three independent experiments was measured using the Gene titan 3′ microarray. *, p<0.05; **, p<0.01 versus 0 hours, as shown in FIG. 5.

[4] = tested on: HER3 expression in A549 human lung xenografts; experiment: HER3 modulation in A549 tumors; type: in vivo, Swiss nude mice
Protocol: Briefly, mice bearing measurable lung A549 tumors implanted SC have been left untreated or treated either by MM121 as a single agent (at dose of 5 mg/kg or 30 mg/kg, one administration) or by compound A as a single agent (at dose of 30 mg/kg or 100 mg/kg, daily administrations) or by a combination of both (at 30 mg/kg for MM121 and 100 mg/kg for compound A). The HER3 expression level in xenografted tumors has been followed for up to 96 hours.

HER3 mRNA = experiment: real-time qPCR of HER3 mRNA; type: cell-based, human; conditions: BT474, SKBR3, MDA453 cells; 6 μM; time course up to 48 hours
Protocol: FIG. 12B depicts a bar chart of timed HER3 mRNA transcription in BT474 cells which were treated with 2 μM 5J8, 20 μM LY294002, and 50 nM rapamycin for 10 hours prior to RNA isolation and qPCR analysis with HER3-specific primers.

[5] = concentrations below 20 μM, 24 hours

COc1ccc(Cl)c(Nc2nc3ccccc3nc2NS(=O)(=O)c2cccc(NC(=O)C(C)(C)N)c2)c1 [Compound A]
phospho-RTK arrays ([1]; BT474, 6 μM, 24-h time course): increase in not only HER3, but also multiple other RTKs
RTK mRNAs by qPCR ([1]; BT474, 10 μM, 6 hours): increase in ERBB4, IGF-IR, InsR, EphA1, FGFR2, and FGFR3 mRNAs
cell lines with upregulation of total HER3 and/or pHER3^Y1289 levels ([2]; 24 hours): 6/7
time to recovery of pAKT and pS6 levels ([2]; BT474, 6 μM): ≤ 6 hours
total HER3, pHER3, pAKT time course ([2]; BT474, 6 μM, 0-72 hours): time-dependent upregulation of total HER3, HER3 phosphorylated at Y1197 and Y1289
HER3 RNA and protein time course ([2]; BT-474 cells, 6 uM, inhibitor added every 24 hours): time-dependent upregulation of HER3 RNA and protein, beginning at 6 hours and increasing through 72 hours
catalytic activity or autophosphorylation of HER2 ([2]; HER2-overexpressing cells): does not affect the catalytic activity or autophosphorylation of HER2
P-Erk ([2]; SKBR-3 and MDA-453 cells, like in BT-474): P-Erk is upregulated
pAKT^S473/T308 and pS6^S240/244 ([2]; all cell lines, 0-20 μM): dose-dependent reduction in pAKT^S473/T308 and pS6^S240/244
PI3K signaling as measured by pAKT^S473 ([2]; all cell lines, 24 hours, 0-20 μM): dose-dependent inhibition of PI3K signaling
cyclin D1, pRB, p27^KIP1 [2, 5]: reduction in cyclin D1 and pRB and an increase in levels of the CDK inhibitor p27^KIP1
total or cleaved PARP [2, 5]: no change in levels of total or cleaved PARP
HER2-overexpressing cell lines with modest upregulation of total HER2 and/or pHER2^Y1248 ([2]; upon inhibition of PI3K): 5/6
IC50 [3]: 10 µM
HER3 expression, Change vs Control (%) ([4]; Compound A 30 mg/kg PO: Q1Dx1, 4 h): −3%
HER3 expression, Change vs Control (%) ([4]; Compound A 30 mg/kg PO: Q1Dx1, 24 h): 12%
HER3 expression, Change vs Control (%) ([4]; Compound A 30 mg/kg PO: Q1Dx2, 24 h): 23%
HER3 expression, Change vs Control (%) ([4]; Compound A 30 mg/kg PO: Q1Dx3, 24 h): 27%
HER3 expression, Change vs Control (%) ([4]; Compound A 100 mg/kg PO: Q1Dx1, 4 h): 10%
HER3 expression, Change vs Control (%) ([4]; Compound A 100 mg/kg PO: Q1Dx1, 24 h): 19%
HER3 expression, Change vs Control (%) ([4]; Compound A 100 mg/kg PO: Q1Dx2, 24 h): 45%
HER3 expression, Change vs Control (%) ([4]; Compound A 100 mg/kg PO: Q1Dx3, 24 h): 37%
HER3 expression in A549 lung model (summary of Table 5) ([4]; up to 96 hours): slight increase of HER3 expression
HER3 mRNA levels (HER3 mRNA): increase in HER3 mRNA that appeared maximal at 6 hours and was maintained up to 48 hours
